In patent US9232796B2, “Herbicidal compositions comprising 4-amino-3-chloro-5-fluoro-6-(4-chloro-2-fluoro-3-methoxyphenyl) pyridine-2-carboxylic acid or a derivative thereof and acetyl-CoA carboxylase (ACCase) inhibitors” (DOW AGROSCIENCES LLC, priority 2012, dated 2016):

How the values were obtained:
Experiment in all cases: Example IV postemergence foliar-applied, greenhouse, cereal crops weeds
AVEFA = assay type: in vivo, Avena fatua L.
Protocol: (§1) Seeds of the desired test plant species were planted in Sun Gro MetroMix® 306 planting mixture, which typically has a pH of 6.0 to 6.8 and an organic matter content of about 30 percent, in plastic pots with a surface area of 103.2 square centimeters (cm^2). When required to ensure good germination and healthy plants, a fungicide treatment and/or other chemical or physical treatment was applied. The plants were grown for 7-36 days in a greenhouse with an approximate 14 hour photoperiod which was maintained at about 18° C. during the day and about 17° C. during the night. Nutrients and water were added on a regular basis and supplemental lighting was provided with overhead metal halide 1000-Watt lamps as necessary. The plants were employed for testing when they reached the second or third true leaf stage.
(§2) Treatments consisted of the benzyl ester of 4-amino-3-chloro-5-fluoro-6-(4-chloro-2-fluoro-3-methoxy-phenyl)pyridine-2-carboxylic acid (Compound A), formulated as an SC, a second cereal herbicide alone and then both in combination.
(§3) Other herbicidal components were applied on an active ingredient basis and included acetyl-CoA carboxylase (ACCase)-inhibiting herbicides clodinafop-propargyl, fenoxaprop-P-ethyl, pinoxaden and tralkoxydim.
(§4) Measured aliquots of benzyl ester of 4-amino-3-chloro-5-fluoro-6-(4-chloro-2-fluoro-3-methoxy-phenyl)pyridine-2-carboxylic acid (Compound A) were placed in 25 milliliter (mL) glass vials and diluted in a volume of 1.25% (v/v) Agri-Dex® crop oil concentrate to obtain stock solutions. Compound requirements are based upon a 12 mL application volume at a rate of 187 liters per hectare (L/ha). Spray solutions of the second cereal herbicide and experimental compound mixtures were prepared by adding the stock solutions to the appropriate amount of dilution solution to form 12 mL spray solution with active ingredients in two- and three-way combinations. Formulated compounds were applied to the plant material with an overhead Mandel track sprayer equipped with an 8002E nozzle calibrated to deliver 187 L/ha over an application area of 0.503 square meters (m^2) at a spray height of 18 inches (46 cm) above average plant canopy. Control plants were sprayed in the same manner with the solvent blank.
The treated plants and control plants were placed in a greenhouse as described above and watered by sub-irrigation to prevent wash-off of the test compounds. After 20-22 days, the condition of the test plants as compared with that of the control plants was determined visually and scored on a scale of 0 to 100 percent where 0 corresponds to no injury and 100 corresponds to complete kill. […]

KCHSC = assay type: in vivo, Kochia scoparia (L.) Schrad.
Protocol: as §1, with “When required to ensure good germination and healthy plants, a fungicide treatment and/or other chemical or physical treatment was applied.” left out
as §2, §3
as §4, with “Spray solutions of the second cereal herbicide and experimental compound mixtures were prepared by adding the stock solutions to the appropriate amount of dilution solution to form 12 mL spray solution with active ingredients in two- and three-way combinations.” left out
(§5) The treated plants and control plants were placed in a greenhouse as described above and watered by sub-irrigation to prevent wash-off of the test compounds. After 20-22 days, the condition of the test plants as compared with that of the control plants was determined visually and scored on a scale of 0 to 100 percent where 0 corresponds to no injury and 100 corresponds to complete kill.
(§6) Colby's equation was used to determine the herbicidal effects expected from the mixtures (Colby, S. R. 1967. Calculation of the synergistic and antagonistic response of herbicide combinations. Weeds 15:20-22.).
(§7) The following equation was used to calculate the expected activity of mixtures containing two active ingredients, A and B: Expected=A+B−(A×B/100)

PHAMI = assay type: in vivo, Phalaris minor Retz.
Protocol: as §1, with “When required to ensure good germination and healthy plants, a fungicide treatment and/or other chemical or physical treatment was applied.” left out
as §2, §3
as §4, with “Spray solutions of the second cereal herbicide and experimental compound mixtures were prepared by adding the stock solutions to the appropriate amount of dilution solution to form 12 mL spray solution with active ingredients in two- and three-way combinations.” left out
as §5, §6, §7

[1] = Compound A Benzyl Ester 5 gai/ha
[2] = Compound A Benzyl Ester 10 gai/ha

With COc1c(Cl)ccc(-c2nc(C(=O)OCc3ccccc3)c(Cl)c(N)c2F)c1F [Compound A Benzyl Ester, benzyl ester of 4-amino-3-chloro-5-fluoro-6-(4-chloro-2-fluoro-3-methoxy-phenyl)pyridine-2-carboxylic acid] the “Visual Weed Control (%) - 21 DAA AVEFA Obs” value (AVEFA; [1]) was 0%, the “Visual Weed Control (%) - 21 DAA AVEFA Obs” value (AVEFA; [2]) was 0% and the “Visual Weed Control (%) - 21 DAA KCHSC Obs” value (KCHSC; [1]) was 20%. The “Visual Weed Control (%) - 21 DAA KCHSC Obs” value (KCHSC; [2]) was 30%, the “Visual Weed Control (%) - 21 DAA PHAMI Obs” value (PHAMI; [1]) was 0% and the “Visual Weed Control (%) - 21 DAA PHAMI Obs” value (PHAMI; [2]) was 0%.
